The source of these data is US10047098B2, “C5-C6-oxacyclic fused iminopyrimidinone compounds as bace inhibitors, compositions, and their use” (Merck Sharp & Dohme Corp., priority 2014, dated 2018).

In experiment [1] the target is purified human autoBACE-2 (Homo sapiens (Human), UniProt Q9Y5Z0). The experiment in a line: BACE-2 Assay (BACE-HTRF assay). The following applies: Ki calculated from IC50 using the Cheng-Prusoff equation; QSY7-EISEVNLDAEFC-Eu-amide substrate, pH 5.0. Type of experiment: biochemical. The method, then: Inhibitor IC50s at purified human autoBACE-2 are determined in a time-resolved endpoint proteolysis assay that measures hydrolysis of the QSY7-[…]-Eu-amide FRET peptide substrate (BACE-HTRF assay). […] DMSO is present at 5% final concentration in the assay. Following laser excitation of sample wells at 320 nm, the fluorescence signal at 620 nm is collected for 400 ms following a 50 μs delay on a RUBYstar HTRF plate reader (BMG Labtechnologies). Raw RFU data is normalized to maximum (1.0 nM BACE/DMSO) and minimum (no enzyme/DMSO) RFU values. […] The Ki values are calculated from the IC50 using the Cheng-Prusoff equation.

In experiment [2] the target is Recombinant human soluble BACE1 catalytic domain (Homo sapiens (Human), UniProt P56817). The experiment in a line: BACE1 HTRF FRET Assay. The following applies: Ki calculated from IC50 using the Cheng-Prusoff equation; QSY7-APPswe-Eu substrate, pH 5.0; read-out: BACE-1 Ki. In kind it is biochemical. The text has this: Reagents: Na^+-Acetate pH 5.0; 1% Brij-35; Glycerol; Dimethyl Sulfoxide (DMSO); Recombinant human soluble BACE1 catalytic domain (>95% pure); APP Swedish mutant peptide substrate (QSY7-APP^swe-Eu): QSY7-EISEVNLDAEFC-Europium-amide.
A homogeneous time-resolved FRET assay can be used to determine IC50 values for inhibitors of the soluble human BACE1 catalytic domain. This assay monitors the increase of 620 nm fluorescence that resulted from BACE1 cleavage of an APPswedish APP^swe mutant peptide FRET substrate (QSY7-EISEVNLDAEFC-Europium-amide). This substrate contains an N-terminal QSY7 moiety that serves as a quencher of the C-terminal Europium fluorophore (620 nm Em). In the absence of enzyme activity, 620 nm fluorescence is low in the assay and increased linearly over 3 hours in the presence of uninhibited BACE1 enzyme. Inhibition of BACE1 cleavage of the QSY7-APP^swe-Eu substrate by inhibitors is manifested as a suppression of 620 nm fluorescence.
Varying concentrations of inhibitors at 3× the final desired concentration in a volume of 10 ul are preincubated with purified human BACE1 catalytic domain (3 nM in 10 μl) for 30 minutes at 30° C. in reaction buffer containing 20 mM Na-Acetate pH 5.0, 10% glycerol, 0.1% Brij-35 and 7.5% DSMO. Reactions are initiated by addition of 10 μl of 600 nM QSY7-APP^swe-Eu substrate (200 nM final) to give a final reaction volume of 30 μl in a 384 well Nunc HTRF plate. The reactions are incubated at 30° C. for 1.5 hours. The 620 nm fluorescence is then read on a Rubystar HTRF plate reader (BMG Labtechnologies) using a 50 millisecond delay followed by a 400 millisecond acquisition time window. Inhibitor IC50 values are derived from non-linear regression analysis of concentration response curves. Ki values are then calculated from IC50 values using the Cheng-Prusoff equation using a previously determined […] of 8 μM for the QSY7-APP^swe-Eu substrate at BACE1.

Recombinant human soluble BACE1 catalytic domain, sequence (P56817 75-416): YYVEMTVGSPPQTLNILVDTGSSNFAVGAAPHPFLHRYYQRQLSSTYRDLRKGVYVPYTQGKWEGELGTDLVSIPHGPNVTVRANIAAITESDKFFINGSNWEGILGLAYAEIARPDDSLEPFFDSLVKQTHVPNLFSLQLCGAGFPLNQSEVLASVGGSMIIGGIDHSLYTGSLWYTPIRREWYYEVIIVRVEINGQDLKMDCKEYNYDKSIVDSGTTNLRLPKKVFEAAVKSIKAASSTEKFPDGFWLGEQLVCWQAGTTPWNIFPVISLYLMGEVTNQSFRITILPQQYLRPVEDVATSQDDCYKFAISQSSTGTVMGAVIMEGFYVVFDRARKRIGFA
purified human autoBACE-2, sequence (Q9Y5Z0 63-473 limits assumed): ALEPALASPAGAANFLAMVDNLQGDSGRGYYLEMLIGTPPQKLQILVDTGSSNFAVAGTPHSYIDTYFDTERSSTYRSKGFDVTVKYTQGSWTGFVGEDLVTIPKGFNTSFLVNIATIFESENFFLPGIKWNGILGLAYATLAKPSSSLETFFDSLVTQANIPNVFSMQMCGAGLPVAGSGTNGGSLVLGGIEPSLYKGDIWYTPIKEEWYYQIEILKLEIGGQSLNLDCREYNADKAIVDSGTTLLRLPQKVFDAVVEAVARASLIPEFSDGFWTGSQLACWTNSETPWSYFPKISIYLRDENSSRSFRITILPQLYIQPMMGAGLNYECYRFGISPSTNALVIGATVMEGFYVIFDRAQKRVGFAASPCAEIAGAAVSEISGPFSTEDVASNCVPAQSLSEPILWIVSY

For the molecule `COC[C@H]1C[C@H]2C(=O)N(C)C(=N)N[C@@]2(c2cc(Oc3cc(F)cnc3F)c(F)cc2F)CO1` [Example 59, (4aR,6R,8aS)-8a-(5-((2,5-difluoropyridin-3-yl)oxy)-2,4-difluorophenyl)-2-imino-6-(methoxymethyl)-3-methylhexahydro-1H-pyrano[3,4-d]pyrimidin-4(4aH)-one], the Ki in experiment [1] was 20 nM; in experiment [2], 3 nM.

As for `Cc1cccnc1Oc1ccc(F)c([C@]23CO[C@@H](C)C[C@H]2C(=O)N(C)C(=N)N3)c1` [Example 73, (4aR,6S,8aS)-8a-(2-fluoro-5-((3-methylpyridin-2-yl)oxy)phenyl)-2-imino-3,6-dimethylhexahydro-lH-pyrano[3,4-d]pyrimidin-4(4aH)-one], the Ki was 32.3 nM in experiment [1] and 295 nM in experiment [2].

With `CC(C)COc1ccc(F)c([C@]23CO[C@@H](C4CC4)C[C@H]2C(=O)N(C)C(=N)N3)c1` [Example 45, (4aR,6R,8aS)-6-cyclopropyl-8a-(2-fluoro-5-isobutoxyphenyl)-2-imino-3-methylhexahydro-1H-pyrano[3,4-d]pyrimidin-4(4aH)-one], the values for the Ki in experiment [1] and in experiment [2] were 25 nM and 45 nM, respectively.

Consider `COC[C@H]1C[C@H]2C(=O)N(C)C(=N)N[C@@]2(c2ccc(F)cc2F)CO1` [Example 1, (4aR,6R,8aS)-8a-(2,4-difluorophenyl)-2-imino-6-(methoxymethyl)-3-methylhexahydro-1H-pyrano[3,4-d]pyrimidin-4(4aH)-one], for which the Ki was 237 nM in experiment [1] and 629 nM in experiment [2].

Regarding `COc1cc([C@]23CO[C@@H](C)C[C@H]2C(=O)N(C)C(=N)N3)c(F)cn1` [Example 91, (4aR,6S,8aS)-8a-(5-fluoro-2-methoxypyridin-4-yl)-2-imino-3,6-dimethylhexahydro-1H-pyrano[3,4-d]pyrimidin-4(4aH)-one], the Ki was 155 nM in experiment [1] and 468 nM in experiment [2].

For `COC[C@H]1C[C@H]2C(=O)N(C)C(=N)N[C@@]2(c2cc(Oc3ncccc3F)c(F)cc2F)CO1` [Example 3, (4aR,6R,8aS)-8a-(2,4-difluoro-5-((3-fluoropyridin-2-yl)oxy)phenyl)-2-imino-6-(methoxymethyl)-3-methylhexahydro-1H-pyrano[3,4-d]pyrimidin-4(4aH)-one], the Ki was 3 nM in experiment [1] and 1 nM in experiment [2].

For the molecule `C[C@H]1C[C@H]2C(=O)N(C)C(=N)N[C@@]2(c2cc(Oc3ncc(F)cc3F)ccc2F)CO1` [Example 79, (4aR,6S,8aS)-8a-(5-((3,5-difluoropyridin-2-yl)oxy)-2-fluorophenyl)-2-imino-3,6-dimethylhexahydro-1H-pyrano[3,4-d]pyrimidin-4(4aH)-one], the values for the Ki in experiment [1] and in experiment [2] were 41.3 nM and 43.5 nM, respectively.

As to `CCCOc1ccc(F)c([C@]23CO[C@@H](C4CC4)C[C@H]2C(=O)N(C)C(=N)N3)c1` [Example 49, (4aR,6R,8aS)-6-cyclopropyl-8a-(2-fluoro-5-propoxyphenyl)-2-imino-3-methylhexahydro-1H-pyrano[3,4-d]pyrimidin-4(4aH)-one], the Ki in experiment [1] was 64 nM; in experiment [2], 66 nM.

Take `CN1C(=N)N[C@@]2(c3cc(OCC4CC4(F)F)ccc3F)CO[C@@H](C3CC3)C[C@H]2C1=O` (stereo partly drawn) [Example 52]: the Ki in experiment [1] is 18 nM; in experiment [2] it was 31 nM.

As to `C=CCCn1cc(F)c([C@]23CO[C@@H](C)C[C@H]2C(=O)N(C)C(=N)N3)cc1=O` [Example 95, (4aR,6S,8aS)-8a-(1-(but-3-en-1-yl)-5-fluoro-2-oxo-1,2-dihydropyridin-4-yl)-2-imino-3,6-dimethylhexahydro-1H-pyrano[3,4-d]pyrimidin-4(4aH)-one], the Ki in experiment [1] is 1590 nM; in experiment [2], 8400 nM.

On to `C[C@H]1C[C@H]2C(=O)N(C)C(=N)N[C@@]2(c2cc(Oc3ncccc3Cl)ccc2F)CO1` [Example 72, (4aR,6S,8aS)-8a-(5-((3-chloropyridin-2-yl)oxy)-2-fluorophenyl)-2-imino-3,6-dimethylhexahydro-1H-pyrano[3,4-d]pyrimidin-4(4aH)-one], for which the inhibitory constant (Ki) in experiment [1] is 9.67 nM; in experiment [2], 37.6 nM.

Consider `C[C@H]1C[C@H]2C(=O)N(C)C(=N)N[C@@]2(c2cc(=O)n(CC3CC3)cc2F)CO1` [Example 94, (4aR,6S,8aS)-8a-(1-(cyclopropylmethyl)-5-fluoro-2-oxo-1,2-dihydropyridin-4-yl)-2-imino-3,6-dimethylhexahydro-1H-pyrano[3,4-d]pyrimidin-4(4aH)-one], for which the Ki in experiment [1] was 1590 nM; in experiment [2] it was 4180 nM.

With `CN1C(=N)N[C@@]2(c3cc(OCC4CC4)ccc3F)CO[C@@H](C3CC3)C[C@H]2C1=O` [Example 24, (4aR,6R,8aS)-6-cyclopropyl-8a-(5-(cyclopropylmethoxy)-2-fluorophenyl)-2-imino-3-methylhexahydro-1H-pyrano[3,4-d]pyrimidin-4(4aH)-one], the Ki in experiment [1] is 10 nM; in experiment [2] it was 11 nM.

Consider `CN1C(=N)N[C@@]2(c3cc(C#N)ccc3F)CO[C@@H](C3CC3)C[C@H]2C1=O` [Example 38, 3-((4aR,6R,8aS)-6-cyclopropyl-2-imino-3-methyl-4-oxohexahydro-1H-pyrano[3,4-d]pyrimidin-8a(8H)-yl)-4-fluorobenzonitrile], for which the figures for the Ki in experiment [1] and in experiment [2] were 398 nM and 206 nM, respectively.

In the case of `C[C@H]1C[C@H]2C(=O)N(C)C(=N)N[C@@]2(c2cc(Oc3ccccn3)ccc2F)CO1` [Example 76, (4aR,6S,8aS)-8a-(2-fluoro-5-(pyridin-2-yloxy)phenyl)-2-imino-3,6-dimethylhexahydro-1H-pyrano[3,4-d]pyrimidin-4(4aH)-one], the Ki was 13.4 nM in experiment [1] and 31.7 nM in experiment [2].

As to `C[C@H]1C[C@H]2C(=O)N(C)C(=N)N[C@@]2(c2cc(Oc3cccnc3)ccc2F)CO1` [Example 81, (4aR,6S,8aS)-8a-(2-fluoro-5-(pyridin-3-yloxy)phenyl)-2-imino-3,6-dimethylhexahydro-1H-pyrano[3,4-d]pyrimidin-4(4aH)-one], the Ki in experiment [1] is 20.7 nM; in experiment [2], 26.8 nM.

On to `C[C@H]1C[C@H]2C(=O)N(C)C(=N)N[C@@]2(c2cc(Oc3cc(C#N)ccn3)c(F)cc2F)CO1` [Example 9, 2-(2,4-difluoro-5-((4aR,6S,8aS)-2-imino-3,6-dimethyl-4-oxohexahydro-1H-pyrano[3,4-d]pyrimidin-8a(8H)-yl)phenoxy)isonicotinonitrile], for which the Ki in experiment [1] is 4 nM; in experiment [2], 2 nM.

On to `CN1C(=N)N[C@@]2(c3cc(OC4CC(F)(F)C4)ccc3F)CO[C@@H](C3CC3)C[C@H]2C1=O` [Example 57, (4aR,6R,8aS)-6-cyclopropyl-8a-(5-(3,3-difluorocyclobutoxy)-2-fluorophenyl)-2-imino-3-methylhexahydro-1H-pyrano[3,4-d]pyrimidin-4(4aH)-one], for which the values for the Ki in experiment [1] and in experiment [2] were 41 nM and 43 nM, respectively.

With `CN1C(=N)N[C@@]2(c3cc(Oc4ncc(F)cc4F)ccc3F)CO[C@@H](C3CC3)C[C@H]2C1=O` [Example 18, (4aR,6R,8aS)-6-cyclopropyl-8a-(5-((3,5-difluoropyridin-2-yl)oxy)-2-fluorophenyl)-2-imino-3-methylhexahydro-1H-pyrano[3,4-d]pyrimidin-4(4aH)-one], the Ki in experiment [1] is 109 nM; in experiment [2], 11 nM.

On to `CN1C(=N)N[C@@]2(c3cc(Oc4ncccc4F)ccc3F)CO[C@@H](C3CC3)C[C@H]2C1=O` [Example 15, (4aR,6R,8aS)-6-cyclopropyl-8a-(2-fluoro-5-((3-fluoropyridin-2-yl)oxy)phenyl)-2-imino-3-methylhexahydro-1H-pyrano[3,4-d]pyrimidin-4(4aH)-one], for which the figures for the Ki in experiment [1] and in experiment [2] were 8 nM and 2 nM, respectively.

Consider `CN1C(=N)N[C@@]2(c3cc(OCC4CCC4)ccc3F)CO[C@@H](C3CC3)C[C@H]2C1=O` [Example 44, (4aR,6R,8aS)-8a-(5-(cyclobutylmethoxy)-2-fluorophenyl)-6-cyclopropyl-2-imino-3-methylhexahydro-1H-pyrano[3,4-d]pyrimidin-4(4aH)-one], for which the figures for the Ki in experiment [1] and in experiment [2] were 20 nM and 30 nM, respectively.
